Test results: patent publication US20200291082A1, “PREVENTION AND TREATMENT OF GRAFT-VERSUS-HOST-DISEASE WITH DEFENSINS” (priority 2017, published 2020)

Tests used:
[1] = system: CD4+CD25+ Tcell transfer induced colitis; assay: therapeutic murine 14 weeks CD4+CD25+ Tcell transfer induced colitis model (Example 6); type: in vivo, SCID mice; conditions: hBD2 1 mg/kg s.c. OD, Dexamethasone 0.3 mg/kg i.p. OD, Enbrel 100 μg/mouse s.c. twice weekly
Excerpt: Efficacy of s.c. administration of hBD2 versus s.c. anti TNF-α (Enbrel) and intraperitoneal dexamethasone in a therapeutic, murine, 14 weeks, CD4+CD25+ Tcell transfer induced colitis model.
70 female BALB/c mice housed in groups of five per cage were allocated to 7 different treatment groups. Colitis was induced in SCID mice by transplantation of CD4+CD25+ Tcells from BALB/c mice. Lymphocytes isolated from spleen and lymph nodes from BALB/c mice were subjected to negative selection of CD4+ Tcells. Afterwards, CD4+CD25+ cells were positively isolated by binding to the beads from the CD4+ Tcell suspensions and the CD4+CD25− were collected from the supernatant. The animals were treated with hBD2, 0.1 mg/kg s.c. OD; 1 mg/kg s.c. OD or 3 mg/kg s.c. OD or with mouse anti TNFα 100 μg/mouse s.c. twice weekly or with dexamethasone 0.3 mg/kg intraperitoneally OD or PBS s.c. as vehicle from day 7 and 86 consecutive days.
Clinical assessment was based on body weight loss, stool consistency and presence of blood per rectum. The animals were sacrificed on day 95 and colon removed for assessment of weight and myeloperoxidase activity.

[2] = system: house dust mite model of allergic asthma; assay: therapeutic intranasal versus oral hBD2 in murine house dust mite model of allergic asthma (Example 10); type: in vivo, BALB/c mice; conditions: dexamethasone 1 mg/kg BID oral; hBD2 both IN doses (0.4 mg/kg/day TID and 1.7 mg/kg/day TID)
Description: To determine and assess the efficacy of IN versus oral therapeutic intervention with defensins in a murine house dust mite model of allergic asthma.
Treatment regime: Female 7-10 weeks old BALB/c mice were randomly allocated into 7 study groups one day prior to study start and subcutaneously (SC) sensitized to house dust mite (100 μg HDM in 200 μL saline plus Freund's complete adjuvant in 0.9% saline). Mice were then intranasally (IN) challenged with HDM on day 14 (HDM 25 μg in 50 μL of saline). Dexamethasone was administered orally (1 mg/kg BID; 50 μL phosphate buffered saline (PBS)) on day 14. hBD2 was administered IN or orally (1.7 mg/kg TID IN; 0.4 mg/kg TID IN; 0.4 mg/kg TID orally, 50 μL phosphate buffered saline) on day 14. The initial dose was administered 60 minutes prior to challenge, and the subsequent doses approximately 6 hours apart (FIG. 5).
Airway inflammation: At 48 hours post challenge, bronchoalveolar lavage was performed washing the lungs with 3 volumes of cold PBS (0.4; 0.3 and 0.3 mL, total 1 mL). Total and differential leucocyte cell counts were determined on an automated haematological analyser Sysmex XT-2000iV.
Data are represented as airway resistance at […] methacholine and as dose responsive curves.
Lung sampling for cytokine analysis: After completion of every BAL, lungs were removed from the thorax, snap frozen in liquid nitrogen and stored frozen at −80 degrees Celsius until analysis of cytokine concentration of IL-1β, TNF-α, IL-6, IL-10 and IFNγ by ELISA.

[3] = system: gut microbiota in high fat diet murine model; assay: prophylactic treatment with defensins in murine high fat diet model, gut microbiota (Example 7); type: in vivo, mice
Excerpt: Protection and preservation of gut microbiota by prophylactic treatment with defensins. Mice: Mice were housed in trios, 4 cages per group. Feed intake was registered daily just before lights were turned off at 6 pm. Individual mice were subjected to experimental procedures in altered order both group and cage wise. Mice were kept at room temperature under a 12-hour light/dark cycle at SPF standard conditions. Diets: For dosing, the average weight was estimated to be 25 grams per mouse. Mice eat approximately 3 grams of feed per mouse per day. Treatment regime: Mice were fed either a high fat diet (HFD) or a low fat (LF) control diet. The HFD contained 4 subgroups; 1 hBD2, 1 HD5, 1 hBD2/HD5 and 1 standard HFD without supplementation of defensins (FIG. 3). Defensin concentration was 1,2 mg hBD2 per kg mouse per day. HD5 was given in equimolar concentration to hBD2. […] Microbial analyses were carried out to study the microbiota of the intestine. Longitudinal 16S characterization was conducted on 4 paired samples from 60 mice, 240 samples in total. Each mouse was sampled prior to diet change, 1 week post diet change, 4 weeks post diet change and at termination, thus ensuring a thorough characterization of the faecal microbiota as a result of defensin treatment.

[4] = system: microbiota in diet-induced obese mice; assay: interventional treatment of dysbiosis with defensins in diet-induced obese mice (Example 8); type: in vivo
Excerpt: Mice and diets. The experiment elucidates the effect of hBD2 and HD5 on the microbiota in diet-induced obese mice. A run-in period of 13 weeks where mice were fed a very HFD (60% energy from fat) preceded the intervention. Only mice meeting the criteria of a minimum of 12 gram weight gain (approximately 50% of initial bodyweight) during the run-in period were included in the final analyses. […] They were exposed to all experimental tests, but excluded from the analyses.
Treatment regimen. Before the intervention all mice were MR scanned. Cages of mice were allocated to experimental groups based on their fat mass. All subsequent measures were paired with data from the same mouse before the intervention. A LFD (low fat diet) reference group was running in parallel. As controls for the intervention 2 additional groups were included: 1 very HFD and 1 LFD. Experimental mice stayed on the very HFD during the intervention (FIG. 3). The mice were on the experimental diet for 10 weeks. They were co-housed throughout the experiment, 4 mice per cage, 3 cages per group. All tests ran over 3 days, 1 cage per group per day.
Tests. Microbial analyses were carried out to study the microbiota of the intestine.
Longitudinal 16S characterization was conducted on 4 paired samples from 60 mice, 240 samples in total. Each mouse was sampled prior to diet change, 1 week post diet change, 4 weeks post diet change and at termination, thus ensuring a thorough characterization of the faecal microbiota as a result of defensin treatment.

[5] = system: acute graft versus host disease following stem cell transplantation; assay: prophylactic oral HD5 or hBD-2 in murine model of acute graft versus host disease (Example 15); type: in vivo, BALB/c mice
Description: To determine and assess the efficacy of prophylactic treatment with oral HD5 in a murine model of acute graft versus host disease following stem cell transplantation.
Treatment regime: 22 female BALB/c mice were irradiated with 4.5 Gy (2×498 sec) at intervals of at least 4 hours on day 0. Bone marrow was harvested: hind limbs harvested from 2 female WT C57BL/6 mice aseptically. Skeletal muscle was removed and epiphysis cut away. Lumen of bone flushed with PBS and cells pelleted and taken up. Harvest of T-cells: spleens from 2 female WT C57BL/6 mice were meshed through a […] cell strainer into a PBS filled dish. Cells were taken up in PBS and transferred into a 50 mL falcon tube and spun down. Cells were taken up in 1 mL PBS and 20 μL of CD4 microbead+20 μL CD8 microbeads per spleen added for incubation for 20 min at 4 degrees C. Cells were washed with PBS and applied to MACS separation in order to positively select CD4+ and CD8+ cells. Positively selected T-cells were counted and taken up. Transplantation: directly after the second irradiation, all WT BALB/c recipient mice were injected with 5×1.000.000 BM cells (50 μL) i.v. into the retroorbital venous plexus under isoflurane anesthesia. 22 BALB/c mice were treated with 1.2 mg of HD5/kg BW/day; 1.2 mg of hBD-2/kg BW/day or 100 μL of PBS per day vial oral gavage from day 0-10.
Survival was monitored for 60 days.

[6] = system: bacteria at the surface of the intestinal mucosa; assay: anti microbial effect of orally administered defensins, mucin immunostaining and localization of bacteria by FISH (Example 16); type: in vivo; conditions: compared with mice on low fat or western diet
Description: Anti microbial effect of orally administered defensins (HD5 and hBD-2).
Mucus immunostaining was paired with fluorescent in situ hybridization (FISH), as previously described in order to analyze bacteria localization at the surface of the intestinal mucosa. Briefly, colonic tissues (proximal colon, 2nd cm from the cecum) without fecal material were placed in methanol-Carnoy's fixative solution (60% methanol, 30% chloroform, 10% glacial acetic acid) for a minimum of 3 hours at room temperature. Tissues were then washed in methanol 2×30 min, ethanol 2×15 min, ethanol/xylene (1:1), 15 min and xylene 2×15 min, followed by embedding in Paraffin with a vertical orientation. Five pm sections were performed and dewax by preheating at 60° C. for 10 min, followed by xylene 60° C. for 10 min, xylene for 10 min and 99.5% ethanol for 10 minutes. Hybridization step was performed at 50° C. overnight with EUB338 probe (5′-GCTGCCTCCCGTAGGAGT-3′, with a 5′ labeling using Alexa 647) diluted to a final concentration of 10 μg/mL in hybridization buffer (20 mM Tris-HCl, pH 7.4, 0.9 M NaCl, 0.1% SDS, 20% formamide). After washing 10 min in wash buffer (20 mM Tris-HCl, pH 7.4, 0.9 M NaCl) and 3×10 min in PBS, PAP pen (Sigma-Aldrich) was used to mark around the section and block solution (5% fetal bovine serum in PBS) was added for 30 min at 4° C. […]

[7] = system: Dextran Sodium Sulphate induced colitis; assay: prophylactic murine 10-day oral Dextran Sodium Sulphate induced colitis model, oral hBD2 versus oral prednisolone (Example 2); type: in vivo, C57BL/6 mice; conditions: versus vehicle; Prednisolone 1 mg/kg twice per day p.o.; oral hBD2 all doses
Description: Anti-inflammatory effect of oral administration of hBD2 versus oral prednisolone in a prophylactic murine, 10-day, oral Dextran Sodium Sulphate induced colitis model.
50 male C57BL/6 mice housed in groups of five per cage were allocated to 5 different treatment groups. All animals had their drinking water supplemented with DSS 2% for 7 days to induce colitis resulting in significant inflammation and injury of the colonic tissue. The animals were treated with oral hBD2 dosed at three different dose levels twice per day or prednisolone 1 mg/kg twice per day or PBS as vehicle for 10 days.
(§1) A disease activity index (DAI) scoring system was applied for clinical assessment (FIG. 7). The animals were sacrificed on day 10 and colon removed for histological assessment employing a histological scoring system (FIG. 8).

[8] = system: Trinitrobenzene Sulfonic Acid induced colitis; assay: prophylactic murine 8-day Trinitrobenzene Sulfonic Acid induced colitis model (Example 3); type: in vivo, BALB/cByJ mice; conditions: Prednisolone 10 mg/kg s.c. once daily; hBD2 at 0.1, 0.3 and 1 mg/kg s.c. once daily
Description: Anti-inflammatory effect of s.c. administration of hBD2 versus s.c. prednisolone in a prophylactic murine, 8-day Trinitrobenzene Sulfonic Acid induced colitis model.
105 male BALB/cByJ mice housed in groups of five per cage were allocated to 7 different treatment groups. Colitis was induced by intracolonic administration of trinitrobenzene sulfonic acid on day 0 under light anaesthesia resulting in significant inflammation and injury of the colonic tissue. The animals were treated with hBD2 at four different dosing levels once daily (1 mg/kg, 0.3 mg/kg, 0.1 mg/kg, and 0.03 mg/kg) or Prednisolone 10 mg/kg once daily dosed subcutaneously under the dorsal skin or PBS as vehicle for 7 days.
as §1

[9] = HFD plus HD5, after dietary intervention

## Enbrel [reference compound]
[1]; colon, day 95
  myeloperoxidase activity: statistically significant and similar effect
[1]
  clinical score (body weight loss, stool consistency, presence of blood per rectum): statistically significant and similar effect on clinical score
[1]; day 95
  colon weight: statistically significant and similar effect on colon weight

## C[C@@H]1C[C@H]2[C@@H]3CCC4=CC(=O)C=C[C@]4(C)[C@@]3(F)[C@@H](O)C[C@]2(C)[C@@]1(O)C(=O)CO [Dexamethasone, reference compound]
[2]
  macrophage counts in BALF: failed to inhibit
  neutrophil counts in BALF: failed to inhibit

## human intestinal alpha defensin 5 (ATCYCRTGRCATRESLSGVCEISGRLYRLCCR; listed as Homo sapiens) [HD5]
[3]; prophylactic oral defensins in high fat diet
  microbial presence and abundance (unifrac analysis): affected primarily the microbial abundance
[3]; small intestine, prophylaxis with HD5
  abundance of Allobaculum: statistically significant increase of abundance of Allobaculum
[4]; HFD plus HD5, 4 weeks after dietary change, versus HFD control
  fat percentage: significantly lower fat percentage
[4]; [9]
  fat percentage: tendency of decreasing fat percentage
  weight gain: gained significantly less weight than the HFD control
[4]; colon
  abundance of Alloprevotella: increased the abundance of Alloprevotella statistically significantly
[4]; small intestine
  relative abundance of Bifidobacteriaceae: trend towards HD5 increasing the abundance
[5]; FIG. 58, oral treatment for 10 days from day of stem cell transplantation
  mortality: significant reduction of mortality
[5]; oral 1.2 mg/kg/day day 0-10, six out of eight PBS mice died
  treated animals that had died by day 60: 2 out of 8
[6]
  lysis zone, distance between intestinal wall and bacterial population: profound effect on the distance

## C[C@]12C=CC(=O)C=C1CC[C@@H]1[C@@H]2[C@@H](O)C[C@@]2(C)[C@H]1CC[C@]2(O)C(=O)CO [Prednisolone, reference compound]
[7]
  histological score: statistically significant effect on histological score
[8]
  histological score: highly statistically significant clinical effect on histological score
